Test system: HCT-116 colon cancer cell line
Assay: MTT cell proliferation assay on HCT-116 cells
Type: cell-based
Method: For cell culture experiments various cancer cell lines, HCT-116 colon cancer, U87-MG glial tumor, MCF7 breast cancer cell lines were used. Cells were seeded with high glucose DMEM medium (Biosera) supplemented with 10% FBS (Gibco) and 1× penicillin/streptomycin (Multicell). Twenty-four hours prior to molecule treatment, 10,000 cells were seeded into each well of 24-well cell culture plates. Molecules were used by preparing 4 mM stock solution in DMSO (Amresco). For molecule treatment, molecule stock solutions were diluted in DMEM with 10% FBS and added onto cells in each corresponding well. Final concentration of vehicle DMSO was 2% at maximum. Therefore, the vehicle group in experiments only included maximum of 2% DMSO concentration. We calculated the number of cells to be seeded to make sure that none of the cells reaches more than 60% confluency during the treatment period, as higher plate confluency levels would slow down cell proliferation independently from the molecule treatment.
Values of half-maximal inhibitory concentration were (IC50) determined by MTT cell proliferation assays. Different concentrations of molecules ranging between 10^-9 to 10^-4 M were tested on HCT-116 cell lines with single treatment. 570 nm absorbance values were recorded and IC50 values were calculated by dose response-inhibition curves and nonlinear regression analysis on GraphPad Prism 8 software. For cell proliferation assays we performed five days experiments and repeated experiments at least three times with all cell lines. […] Therefore, three days results were presented. MTT analysis were performed on 24-well plates with initially 1×10^4 cells/well, grown overnight, and then treated with the selected molecules with different concentrations for at least 3 days. Following the initial incubation day, molecules were added and after incubation with MTT at 37° C. for 4 hours, formazan was solubilized with DMSO (Sigma-Aldrich, St. Louis, USA) and absorbance was measured at 570 nm. […] The IC50 value of compound of formula I was determined to be 22 μm (FIG. 1).

IC50 (Homo sapiens, 72 h, HCT-116 cells, single treatment, 10^-9 to 10^-4 M, 570 nm absorbance, three days results, read-out: IC50 (half-maximal inhibitory concentration), MTT cell proliferation assay): 22 µM
SMILES: O=C(CSc1nc2ccc(N3C(=O)c4ccccc4C3=O)cc2s1)c1ccc(-c2ccccc2)cc1 [compound of formula I]
cell morphology of treated HCT-116 cells (HCT-116 cells treated with compound versus vehicle group): apoptotic cell structures
proliferation of HCT-116 cells versus vehicle group (FIG. 1) (HCT-116 cells, MTT, cell viability over time, vehicle max 2% DMSO): reduced proliferation

— US12398128B2, “Physics-driven discovery of novel small therapeutic compounds for use as a BCL-2 inhibitor” (BAHCESEHIR UNIVERSITESI, priority 2021, dated 2025)
